Results from PubChem BioAssay AID1259407 (Chemical Carcinogenesis Research Information System (CCRIS), 2018).
The source made the active and inactive calls. No rule for the calls is given here.

System: CCRIS mutagenicity, Ames/micronucleus/aberration tests
Assay: CCRIS mutagenicity studies
[1] = Test System: AMES SALMONELLA TYPHIMURIUM, Strain/Indicator: TA100, Metabolic Activation: NONE, Method: STANDARD PLATE

Compound: C[C@@H]1O[C@H]1C
- mutagenic call (Test System: AMES SALMONELLA TYPHIMURIUM, Strain/Indicator: TA100, Metabolic Activation: NONE, Method: FLASK VAPORIZATION): active; positive
- mutagenic call [1]: active; positive
- mutagenic call (Test System: AMES SALMONELLA TYPHIMURIUM, Strain/Indicator: TA100, Metabolic Activation: RAT, LIVER, S-9, AROCLOR 1254, Method: FLASK VAPORIZATION): active; positive
- mutagenic call (Test System: AMES SALMONELLA TYPHIMURIUM, Strain/Indicator: TA1535, Metabolic Activation: NONE, Method: FLASK VAPORIZATION): active; positive
- mutagenic call (Test System: AMES SALMONELLA TYPHIMURIUM, Strain/Indicator: TA1535, Metabolic Activation: NONE, Method: STANDARD PLATE): active; positive
- mutagenic call (Test System: AMES SALMONELLA TYPHIMURIUM, Strain/Indicator: TA1535, Metabolic Activation: RAT, LIVER, S-9, AROCLOR 1254, Method: FLASK VAPORIZATION): active; positive

Compound: COC(=O)[C@@H]1O[C@@H]1c1ccccc1
- mutagenic call (Test System: AMES SALMONELLA TYPHIMURIUM, Strain/Indicator: TA98, Metabolic Activation: NONE, Method: STANDARD PLATE): inactive; negative
- mutagenic call [1]: active; positive
- mutagenic call (Test System: AMES SALMONELLA TYPHIMURIUM, Strain/Indicator: TA100, Metabolic Activation: RAT, LIVER, S-9, AROCLOR 1254, Method: STANDARD PLATE): inactive; negative
- mutagenic call (Test System: AMES SALMONELLA TYPHIMURIUM, Strain/Indicator: TA1535, Metabolic Activation: RAT, LIVER, S-9, AROCLOR 1254, Method: STANDARD PLATE): inactive; negative
- mutagenic call (Test System: AMES SALMONELLA TYPHIMURIUM, Strain/Indicator: TA1537, Metabolic Activation: RAT, LIVER, S-9, AROCLOR 1254, Method: STANDARD PLATE): inactive; negative
- mutagenic call (Test System: AMES SALMONELLA TYPHIMURIUM, Strain/Indicator: TA1538, Metabolic Activation: RAT, LIVER, S-9, AROCLOR 1254, Method: STANDARD PLATE): inactive; negative

Compound: N#C/C(N)=C(/N)C#N
- mutagenic call (Test System: AMES SALMONELLA TYPHIMURIUM, Strain/Indicator: TA97, Metabolic Activation: HAMSTER, LIVER, S-9, AROCLOR 1254 (10%), Method: PREINCUBATION): inactive; negative
- mutagenic call (Test System: AMES SALMONELLA TYPHIMURIUM, Strain/Indicator: TA97, Metabolic Activation: HAMSTER, LIVER, S-9, AROCLOR 1254 (30%), Method: PREINCUBATION): inactive; negative
- mutagenic call (Test System: AMES SALMONELLA TYPHIMURIUM, Strain/Indicator: TA97, Metabolic Activation: NONE, Method: PREINCUBATION): inactive; negative
- mutagenic call (Test System: AMES SALMONELLA TYPHIMURIUM, Strain/Indicator: TA97, Metabolic Activation: RAT, LIVER, S-9, AROCLOR 1254 (10%), Method: PREINCUBATION): inactive; negative
- mutagenic call (Test System: AMES SALMONELLA TYPHIMURIUM, Strain/Indicator: TA97, Metabolic Activation: RAT, LIVER, S-9, AROCLOR 1254 (30%), Method: PREINCUBATION): inactive; negative
- mutagenic call (Test System: AMES SALMONELLA TYPHIMURIUM, Strain/Indicator: TA98, Metabolic Activation: HAMSTER, LIVER, S-9, AROCLOR 1254 (10%), Method: PREINCUBATION): inactive; negative
- mutagenic call (Test System: AMES SALMONELLA TYPHIMURIUM, Strain/Indicator: TA98, Metabolic Activation: HAMSTER, LIVER, S-9, AROCLOR 1254 (30%), Method: PREINCUBATION): inactive; negative
- mutagenic call (Test System: AMES SALMONELLA TYPHIMURIUM, Strain/Indicator: TA98, Metabolic Activation: NONE, Method: PREINCUBATION): inactive; negative
- mutagenic call (Test System: AMES SALMONELLA TYPHIMURIUM, Strain/Indicator: TA98, Metabolic Activation: RAT, LIVER, S-9, AROCLOR 1254 (10%), Method: PREINCUBATION): inactive; negative
- mutagenic call (Test System: AMES SALMONELLA TYPHIMURIUM, Strain/Indicator: TA98, Metabolic Activation: RAT, LIVER, S-9, AROCLOR 1254 (30%), Method: PREINCUBATION): inactive; negative
- mutagenic call (Test System: AMES SALMONELLA TYPHIMURIUM, Strain/Indicator: TA100, Metabolic Activation: HAMSTER, LIVER, S-9, AROCLOR 1254 (10%), Method: PREINCUBATION): inactive; negative
- mutagenic call (Test System: AMES SALMONELLA TYPHIMURIUM, Strain/Indicator: TA100, Metabolic Activation: HAMSTER, LIVER, S-9, AROCLOR 1254 (30%), Method: PREINCUBATION): inactive; negative
- mutagenic call (Test System: AMES SALMONELLA TYPHIMURIUM, Strain/Indicator: TA100, Metabolic Activation: NONE, Method: PREINCUBATION): inactive; negative
- mutagenic call (Test System: AMES SALMONELLA TYPHIMURIUM, Strain/Indicator: TA100, Metabolic Activation: RAT, LIVER, S-9, AROCLOR 1254 (10%), Method: PREINCUBATION): inactive; negative
- mutagenic call (Test System: AMES SALMONELLA TYPHIMURIUM, Strain/Indicator: TA100, Metabolic Activation: RAT, LIVER, S-9, AROCLOR 1254 (30%), Method: PREINCUBATION): inactive; negative
- mutagenic call (Test System: AMES SALMONELLA TYPHIMURIUM, Strain/Indicator: TA1535, Metabolic Activation: HAMSTER, LIVER, S-9, AROCLOR 1254 (10%), Method: PREINCUBATION): inactive; negative
- mutagenic call (Test System: AMES SALMONELLA TYPHIMURIUM, Strain/Indicator: TA1535, Metabolic Activation: HAMSTER, LIVER, S-9, AROCLOR 1254 (30%), Method: PREINCUBATION): inactive; negative
- mutagenic call (Test System: AMES SALMONELLA TYPHIMURIUM, Strain/Indicator: TA1535, Metabolic Activation: NONE, Method: PREINCUBATION): inactive; negative
- mutagenic call (Test System: AMES SALMONELLA TYPHIMURIUM, Strain/Indicator: TA1535, Metabolic Activation: RAT, LIVER, S-9, AROCLOR 1254 (10%), Method: PREINCUBATION): inactive; negative
- mutagenic call (Test System: AMES SALMONELLA TYPHIMURIUM, Strain/Indicator: TA1535, Metabolic Activation: RAT, LIVER, S-9, AROCLOR 1254 (30%), Method: PREINCUBATION): inactive; negative
- mutagenic call (Test System: MOUSE LYMPHOMA, Strain/Indicator: L5178Y (TK+/TK-), Metabolic Activation: NONE, Method: SUSPENSION/PLATE): active; positive. reevaluation of results: positive
- mutagenic call (Test System: MOUSE LYMPHOMA, Strain/Indicator: L5178Y (TK+/TK-), Metabolic Activation: RAT, LIVER, S-9, AROCLOR 1254, Method: SUSPENSION/PLATE): active; positive. reevaluation of results: positive
